Earlier results in paper PMC9516332 (Frontiers in Oncology, 2022).
Where two headings read alike, the source gives them in different places.

Columns and labels:
[1] = target: T1, panel of 255 wild-type kinases (Homo sapiens, UniProt P36888); details: kinase FLT3, 1 µmol/L single concentration, cited from earlier work
T1 sequence (P36888 27-993): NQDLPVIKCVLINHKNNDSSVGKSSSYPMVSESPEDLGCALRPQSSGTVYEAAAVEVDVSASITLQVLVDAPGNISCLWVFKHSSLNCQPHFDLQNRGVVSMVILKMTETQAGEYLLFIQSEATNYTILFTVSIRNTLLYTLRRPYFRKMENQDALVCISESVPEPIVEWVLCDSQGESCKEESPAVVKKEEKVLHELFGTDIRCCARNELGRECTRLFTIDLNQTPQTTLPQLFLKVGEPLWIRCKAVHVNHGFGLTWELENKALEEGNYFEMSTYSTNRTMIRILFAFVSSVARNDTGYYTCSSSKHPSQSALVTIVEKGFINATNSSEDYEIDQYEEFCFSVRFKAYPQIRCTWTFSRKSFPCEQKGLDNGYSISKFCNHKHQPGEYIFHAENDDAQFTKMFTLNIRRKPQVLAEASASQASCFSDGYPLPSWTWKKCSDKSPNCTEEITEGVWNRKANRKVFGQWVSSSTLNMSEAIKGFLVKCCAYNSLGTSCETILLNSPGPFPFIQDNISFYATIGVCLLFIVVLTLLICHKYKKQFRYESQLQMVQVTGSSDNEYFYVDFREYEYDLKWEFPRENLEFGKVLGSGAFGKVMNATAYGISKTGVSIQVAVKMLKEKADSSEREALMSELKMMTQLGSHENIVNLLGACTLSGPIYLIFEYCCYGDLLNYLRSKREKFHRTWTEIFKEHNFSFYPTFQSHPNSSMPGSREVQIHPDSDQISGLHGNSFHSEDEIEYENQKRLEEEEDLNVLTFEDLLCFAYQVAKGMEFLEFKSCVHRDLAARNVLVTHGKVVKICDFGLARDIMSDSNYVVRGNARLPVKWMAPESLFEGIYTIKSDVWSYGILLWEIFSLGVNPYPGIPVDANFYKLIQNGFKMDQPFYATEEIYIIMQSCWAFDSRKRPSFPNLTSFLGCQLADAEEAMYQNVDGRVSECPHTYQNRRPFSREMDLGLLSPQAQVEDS

[2] = target: panel of 255 wild-type kinases (Homo sapiens, UniProt P43405); details: kinase SYK, 1 µmol/L single concentration, cited from earlier work
[3] = target: panel of 255 wild-type kinases (Homo sapiens, UniProt P53779); details: kinase JNK3, 1 µmol/L single concentration, cited from earlier work
[4] = target: panel of 255 wild-type kinases (Homo sapiens, UniProt Q9HBH9); details: MNK2, 1 µmol/L single concentration, cited from earlier work
[5] = target: panel of 255 wild-type kinases (Homo sapiens, UniProt P14616); details: kinase IRR, 1 µmol/L single concentration, cited from earlier work
[6] = target: panel of 255 wild-type kinases (Homo sapiens, UniProt P09619); details: kinase PDGFRβ, 1 µmol/L single concentration, cited from earlier work
[7] = target: panel of 255 wild-type kinases (Homo sapiens, UniProt Q04912); details: kinase RON, 1 µmol/L single concentration, cited from earlier work
[8] = target: T2, panel of 255 wild-type kinases (Homo sapiens, UniProt O15111); details: kinase IKKα, 1 µmol/L single concentration, cited from earlier work
T2 sequence (O15111 1-745): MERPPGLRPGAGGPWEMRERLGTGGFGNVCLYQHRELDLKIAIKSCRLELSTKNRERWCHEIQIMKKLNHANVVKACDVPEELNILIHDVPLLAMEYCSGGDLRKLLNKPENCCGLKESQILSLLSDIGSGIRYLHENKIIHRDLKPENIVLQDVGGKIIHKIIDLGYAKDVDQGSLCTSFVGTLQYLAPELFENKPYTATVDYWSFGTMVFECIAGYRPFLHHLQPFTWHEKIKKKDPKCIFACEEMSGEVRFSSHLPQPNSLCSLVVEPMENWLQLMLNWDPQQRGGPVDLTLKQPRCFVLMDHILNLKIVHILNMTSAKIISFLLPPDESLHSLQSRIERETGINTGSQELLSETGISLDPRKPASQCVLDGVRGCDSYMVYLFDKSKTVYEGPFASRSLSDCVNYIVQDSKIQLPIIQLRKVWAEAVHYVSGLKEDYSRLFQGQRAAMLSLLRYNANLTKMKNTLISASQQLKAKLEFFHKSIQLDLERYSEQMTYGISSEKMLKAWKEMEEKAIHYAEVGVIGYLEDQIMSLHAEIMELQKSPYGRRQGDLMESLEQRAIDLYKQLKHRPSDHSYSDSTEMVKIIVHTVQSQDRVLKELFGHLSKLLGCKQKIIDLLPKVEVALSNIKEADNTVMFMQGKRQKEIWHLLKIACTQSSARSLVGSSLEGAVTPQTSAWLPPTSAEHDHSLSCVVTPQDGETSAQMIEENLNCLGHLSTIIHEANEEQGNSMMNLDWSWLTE

[9] = target: panel of 255 wild-type kinases (Homo sapiens, UniProt Q9H4B4); details: kinase PLK3, 1 µmol/L single concentration, cited from earlier work
[10] = target: panel of 255 wild-type kinases (Homo sapiens, UniProt Q9HCP0); details: kinase CK1γ1, 1 µmol/L single concentration, cited from earlier work
[11] = target: panel of 255 wild-type kinases (Homo sapiens, UniProt P35968); details: kinase KDR, 1 µmol/L single concentration, cited from earlier work
[12] = ref DOI: 10.1158/1535-7163.MCT-18-0877
[13] = ref DOI: 10.1371/journal.pone.0092146

Question: What does the source list for `C=CC(=O)N1CCC[C@@H](n2nc(-c3ccc(Oc4ccccc4)cc3)c3c(N)ncnc32)C1` [ibrutinib]?
Answer: %-inhibition at 1 µmol/L, FLT3 [1, 12]: 63%; %-inhibition at 1 µmol/L, SYK [2, 12]: -20%; %-inhibition at 1 µmol/L, JNK3 [3, 12]: 1%; %-inhibition, MNK2 [4, 12]: 20%; %-inhibition at 1 µmol/L, IRR [5, 12]: 12%; %-inhibition at 1 µmol/L, PDGFRβ [6, 12]: 55%; %-inhibition at 1 µmol/L, RON [7, 12]: 7%; %-inhibition at 1 µmol/L, IKKα [8, 12]: 4.34%; %-inhibition at 1 µmol/L, PLK3 [9, 12]: 1.53%; %-inhibition at 1 µmol/L, CK1γ1 [10, 12]: 3.68%; %-inhibition at 1 µmol/L, KDR [11, 12]: 84%

Question: What does the source list for `CC(=O)Nc1cccc(-n2c(=O)n(C3CC3)c(=O)c3c(Nc4ccc(I)cc4F)n(C)c(=O)c(C)c32)c1` [trametinib]?
Answer: %-inhibition at 1 µmol/L, FLT3 [1, 13]: 20%; %-inhibition at 1 µmol/L, SYK [2, 13]: -5%; %-inhibition at 1 µmol/L, JNK3 [3, 13]: -2.37%; %-inhibition, MNK2 [4, 13]: -11%; %-inhibition at 1 µmol/L, IRR [5, 13]: 1.35%; %-inhibition at 1 µmol/L, PDGFRβ [6, 13]: 3.44%; %-inhibition at 1 µmol/L, RON [7, 13]: -6.44%; %-inhibition at 1 µmol/L, IKKα [8, 13]: 2.63%; %-inhibition at 1 µmol/L, PLK3 [9, 13]: -6.59%; %-inhibition at 1 µmol/L, CK1γ1 [10, 13]: 0.211%; %-inhibition at 1 µmol/L, KDR [11, 13]: -0.549%

Question: For `Cc1cc(Nc2ncc(Cl)c(Nc3ccccc3S(=O)(=O)C(C)C)n2)c(OC(C)C)cc1C1CCNCC1` [ceritinib], which “%-inhibition at 1 µmol/L, SYK” value [2, 12] is on record?
Answer: 5%

Question: What about the “%-inhibition at 1 µmol/L, JNK3” value [3, 12] of the same compound?
Answer: 16%

Question: And the “%-inhibition, MNK2” value [4, 12]?
Answer: 76%

Question: What about the “%-inhibition at 1 µmol/L, IRR” value [5, 12] of the same compound?
Answer: 102%

Question: And the “%-inhibition at 1 µmol/L, PDGFRβ” value [6, 12]?
Answer: 55%

Question: And the “%-inhibition at 1 µmol/L, RON” value [7, 12]?
Answer: 9%

Question: What about the “%-inhibition at 1 µmol/L, IKKα” value [8, 12] of the same compound?
Answer: -0.91%

Question: What about the “%-inhibition at 1 µmol/L, PLK3” value [9, 12] of the same compound?
Answer: -0.156%

Question: And the “%-inhibition at 1 µmol/L, CK1γ1” value [10, 12]?
Answer: 19%

Question: And the “%-inhibition at 1 µmol/L, KDR” value [11, 12]?
Answer: 58%

Question: With `C[C@@H](Oc1cc(-c2cnn(C3CCNCC3)c2)cnc1N)c1c(Cl)ccc(F)c1Cl` [crizotinib] as the compound, how does the “%-inhibition at 1 µmol/L, JNK3” value [3, 13] read?
Answer: -1.87%

Question: And the “%-inhibition, MNK2” value [4, 13]?
Answer: 2%

Question: What about the “%-inhibition at 1 µmol/L, PDGFRβ” value [6, 13] of the same compound?
Answer: 18%

Question: What about the “%-inhibition at 1 µmol/L, IKKα” value [8, 13] of the same compound?
Answer: -1.78%

Question: What about the “%-inhibition at 1 µmol/L, PLK3” value [9, 13] of the same compound?
Answer: -2.24%

Question: And the “%-inhibition at 1 µmol/L, CK1γ1” value [10, 13]?
Answer: -3.52%

Question: For `C=CC(=O)Nc1cc(Nc2nccc(-c3cn(C)c4ccccc34)n2)c(OC)cc1N(C)CCN(C)C` [osimertinib], which “%-inhibition at 1 µmol/L, FLT3” value [1, 12] is on record?
Answer: 84%

Question: And the “%-inhibition at 1 µmol/L, SYK” value [2, 12]?
Answer: -38%

Question: And the “%-inhibition at 1 µmol/L, JNK3” value [3, 12]?
Answer: 1.89%

Question: What about the “%-inhibition, MNK2” value [4, 12] of the same compound?
Answer: 97%

Question: What about the “%-inhibition at 1 µmol/L, IRR” value [5, 12] of the same compound?
Answer: 77%

Question: And the “%-inhibition at 1 µmol/L, PDGFRβ” value [6, 12]?
Answer: 87%

Question: What about the “%-inhibition at 1 µmol/L, RON” value [7, 12] of the same compound?
Answer: 5.69%

Question: What about the “%-inhibition at 1 µmol/L, IKKα” value [8, 12] of the same compound?
Answer: 5%

Question: And the “%-inhibition at 1 µmol/L, PLK3” value [9, 12]?
Answer: 5%

Question: What about the “%-inhibition at 1 µmol/L, CK1γ1” value [10, 12] of the same compound?
Answer: 10%

Question: What about the “%-inhibition at 1 µmol/L, KDR” value [11, 12] of the same compound?
Answer: 46%

Question: For `CCCS(=O)(=O)Nc1ccc(F)c(C(=O)c2c[nH]c3ncc(-c4ccc(Cl)cc4)cc23)c1F` [vemurafenib], which “%-inhibition at 1 µmol/L, FLT3” value [1, 13] is on record?
Answer: 10%

Question: What about the “%-inhibition at 1 µmol/L, SYK” value [2, 13] of the same compound?
Answer: -3.77%

Question: What about the “%-inhibition at 1 µmol/L, JNK3” value [3, 13] of the same compound?
Answer: 2.85%

Question: And the “%-inhibition, MNK2” value [4, 13]?
Answer: 27%

Question: What about the “%-inhibition at 1 µmol/L, IRR” value [5, 13] of the same compound?
Answer: 21%

Question: And the “%-inhibition at 1 µmol/L, PDGFRβ” value [6, 13]?
Answer: 33%

Question: And the “%-inhibition at 1 µmol/L, RON” value [7, 13]?
Answer: -2%

Question: And the “%-inhibition at 1 µmol/L, IKKα” value [8, 13]?
Answer: -1.89%

Question: What about the “%-inhibition at 1 µmol/L, PLK3” value [9, 13] of the same compound?
Answer: -2.83%

Question: What about the “%-inhibition at 1 µmol/L, CK1γ1” value [10, 13] of the same compound?
Answer: -2%

Question: What about the “%-inhibition at 1 µmol/L, KDR” value [11, 13] of the same compound?
Answer: 13%

Question: For `CC(C)(C)c1nc(-c2cccc(NS(=O)(=O)c3c(F)cccc3F)c2F)c(-c2ccnc(N)n2)s1` [dabrafenib], which “%-inhibition at 1 µmol/L, FLT3” value [1, 13] is on record?
Answer: 41%

Question: What about the “%-inhibition at 1 µmol/L, SYK” value [2, 13] of the same compound?
Answer: 37%

Question: And the “%-inhibition at 1 µmol/L, JNK3” value [3, 13]?
Answer: 5.59%

Question: And the “%-inhibition at 1 µmol/L, IRR” value [5, 13]?
Answer: 10%

Question: And the “%-inhibition at 1 µmol/L, RON” value [7, 13]?
Answer: 37%

Question: For `CO[C@@H]1[C@H](N(C)C(=O)c2ccccc2)C[C@H]2O[C@]1(C)n1c3ccccc3c3c4c(c5c6ccccc6n2c5c31)C(=O)NC4` [midostaurin], which “%-inhibition at 1 µmol/L, SYK” value [2, 12] is on record?
Answer: 97%

Question: What about the “%-inhibition, MNK2” value [4, 12] of the same compound?
Answer: 80%

Question: What about the “%-inhibition at 1 µmol/L, IRR” value [5, 12] of the same compound?
Answer: 26%

Question: And the “%-inhibition at 1 µmol/L, PDGFRβ” value [6, 12]?
Answer: 100%

Question: And the “%-inhibition at 1 µmol/L, RON” value [7, 12]?
Answer: 22%

Question: And the “%-inhibition at 1 µmol/L, IKKα” value [8, 12]?
Answer: -0.107%

Question: What about the “%-inhibition at 1 µmol/L, PLK3” value [9, 12] of the same compound?
Answer: -0.227%

Question: And the “%-inhibition at 1 µmol/L, CK1γ1” value [10, 12]?
Answer: -0.49%
